From US20250179103A1, “6-OXODECAHYDROPYRROLO[1,2-A][1,5]DIAZOCINE AND 6-OXODECAHYDRO-4H-PYRROLO[2,1-D][1,5]THIAZOCINE DERIVATIVES AS STAT3 AND STAT6 MODULATORS FOR THE TREATMENT OF CANCER AND INFLAMMATORY CONDITIONS” (Recludix Pharma, Inc., priority 2022, published 2025)

Assays:
[1] = molecular target: T1, Recombinant STAT3 protein (STAT3(G127-I722)) (Homo sapiens, UniProt P40763); experiment: STAT3 Fluorescence Polarization (FP) Assay; assay type: binding; conditions: STAT3(G127-I722) 25 nM, probe 5-FAM-GpYLPQTV-NH2 2 nM, 45-minute incubation
T1 construct: Recombinant STAT3 protein (STAT3(G127-I722))
T1 sequence (P40763 127-722): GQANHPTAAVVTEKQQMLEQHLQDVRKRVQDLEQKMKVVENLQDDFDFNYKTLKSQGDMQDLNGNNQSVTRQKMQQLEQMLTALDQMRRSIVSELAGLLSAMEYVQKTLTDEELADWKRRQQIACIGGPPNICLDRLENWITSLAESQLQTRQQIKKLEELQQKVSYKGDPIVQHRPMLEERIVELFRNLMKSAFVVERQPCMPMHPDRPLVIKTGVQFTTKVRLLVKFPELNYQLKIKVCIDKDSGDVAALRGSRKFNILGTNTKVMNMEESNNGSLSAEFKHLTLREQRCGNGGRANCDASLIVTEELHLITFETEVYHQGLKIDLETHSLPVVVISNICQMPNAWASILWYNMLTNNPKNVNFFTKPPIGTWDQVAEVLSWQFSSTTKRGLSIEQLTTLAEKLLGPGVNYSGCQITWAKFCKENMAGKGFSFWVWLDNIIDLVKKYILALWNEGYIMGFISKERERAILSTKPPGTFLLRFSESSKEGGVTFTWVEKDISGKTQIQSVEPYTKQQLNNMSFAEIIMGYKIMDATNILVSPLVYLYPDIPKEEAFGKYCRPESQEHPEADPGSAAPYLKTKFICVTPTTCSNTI
Procedure, shortened: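 Fluorescence polarization after a 45-min room-temperature incubation measured compound displacement of a 2 nM fluorescein-labelled phosphotyrosine peptide (5-FAM-GpYLPQTV-NH2) from 25 nM recombinant STAT3(G127-I722). Buffer was 10 mM HEPES pH 7.4 with 1% DMSO final. IC50s were fitted by nonlinear regression of mP against log concentration.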

[2] = molecular target: T2, Recombinant STAT6 protein (STAT6(W123-T658)) (Homo sapiens, UniProt P42226); experiment: STAT6 Fluorescence Polarization (FP) Assay; assay type: binding; conditions: STAT6(W123-T658) 250 nM, probe 5-FAM-ApYKPFQDLI-NH2 2 nM, 45-minute incubation
T2 construct: Recombinant STAT6 protein (STAT6(W123-T658))
T2 sequence (P42226 123-658): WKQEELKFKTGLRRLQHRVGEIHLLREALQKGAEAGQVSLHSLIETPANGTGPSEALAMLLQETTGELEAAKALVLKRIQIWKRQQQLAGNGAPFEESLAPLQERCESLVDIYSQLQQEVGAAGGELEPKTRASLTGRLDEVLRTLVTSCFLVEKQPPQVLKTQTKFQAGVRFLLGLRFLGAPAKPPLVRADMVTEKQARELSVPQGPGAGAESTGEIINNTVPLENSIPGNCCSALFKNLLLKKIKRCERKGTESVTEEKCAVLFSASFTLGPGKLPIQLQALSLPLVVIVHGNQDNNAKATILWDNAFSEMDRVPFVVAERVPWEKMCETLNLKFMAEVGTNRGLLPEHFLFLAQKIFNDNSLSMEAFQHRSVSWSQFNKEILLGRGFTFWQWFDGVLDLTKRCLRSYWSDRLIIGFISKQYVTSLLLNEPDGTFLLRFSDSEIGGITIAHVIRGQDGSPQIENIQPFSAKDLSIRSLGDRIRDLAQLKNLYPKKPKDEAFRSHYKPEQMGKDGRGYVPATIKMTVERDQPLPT
Procedure, shortened: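 Displacement of a fluorescent phosphotyrosine peptide (5-FAM-ApYKPFQDLI-NH2, 2 nM) from STAT6(W123-T658) (250 nM), 1% DMSO, pH 7.4 HEPES buffer. After 45 min at room temperature, polarization (mP) was plotted versus log compound concentration and fitted by nonlinear regression to give IC50.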

Structure (SMILES)	IC50 [1]	IC50 [2]
CCN1CC[C@H]2CC[C@@H](C(=O)N3C[C@@H](C#N)[C@H](c4cc[nH]c(=O)c4)C3)N2C(=O)[C@@H](NC(=O)c2ccc3ccc(C(F)(F)P(=O)(O)O)cc3c2)C1 (single isomer, unassigned) [Compound 238, ((7-(((5S,8S,10aR)-8-((3R,4S or 3S,4R)-3-cyano-4-(2-oxo-1,2-dihydropyridin-4-yl)pyrrolidine-1-carbonyl)-3-ethyl-6-oxodecahydropyrrolo[1,2-a][1,5]diazocin-5-yl)carbamoyl)naphthalen-2-yl)difluoromethyl)phosphonic acid]	1 to 10 µM	0.3 to 3 µM
CCN1CC[C@H]2CC[C@@H](C(=O)N3C[C@@H](C#N)[C@H](c4ccccc4)C3)N2C(=O)[C@@H](NC(=O)c2ccc3ccc(C(F)(F)P(=O)(O)O)cc3c2)C1 (single isomer, unassigned) [Compound 243, ((7-(((5S,8S,10aR)-8-((3S,4R or 3R,4S)-3-cyano-4-phenylpyrrolidine-1-carbonyl)-3-ethyl-6-oxodecahydropyrrolo[1,2-a][1,5]diazocin-5-yl)carbamoyl)naphthalen-2-yl)difluoromethyl)phosphonic acid]	1 to 10 µM	0.3 to 3 µM
NC(=O)[C@@H]1CN(C(=O)[C@@H]2CC[C@@H]3CCN(CC(F)F)C[C@H](NC(=O)c4cc5cc(C(F)(F)P(=O)(O)O)ccc5s4)C(=O)N32)C[C@H]1c1ccccc1 (single isomer, unassigned) [Compound 245, ((2-(((5S,8S,10aR)-8-((3S,4R or 3R,4S)-3-carbamoyl-4-phenylpyrrolidine-1-carbonyl)-3-(2,2-difluoroethyl)-6-oxodecahydropyrrolo[1,2-a][1,5]diazocin-5-yl)carbamoyl)benzo[b]thiophen-5-yl)difluoromethyl)phosphonic acid]	0.1 to 1 µM	0.3 to 3 µM
COC(=O)[C@@H]1CN(C(=O)[C@@H]2CC[C@@H]3CCN(CC(F)F)C[C@H](NC(=O)c4cc5cc(C(F)(F)P(=O)(O)O)ccc5s4)C(=O)N32)C[C@H]1c1ccccc1 (single isomer, unassigned) [Compound 247, ((2-(((5S,8S,10aR)-3-(2,2-difluoroethyl)-8-((3S,4R or 3R,4S)-3-(methoxycarbonyl)-4-phenylpyrrolidine-1-carbonyl)-6-oxodecahydropyrrolo[1,2-a][1,5]diazocin-5-yl)carbamoyl)benzo[b]thiophen-5-yl)difluoromethyl)phosphonic acid]	0.1 to 1 µM	≤ 0.3 µM
N#C[C@@H]1CN(C(=O)[C@@H]2CC[C@@H]3CCN(CC(F)F)C[C@H](NC(=O)c4ccc5ccc(C(F)(F)P(=O)(O)O)cc5c4)C(=O)N32)C[C@H]1c1ccccc1 (single isomer, unassigned) [Compound 248, ((7-(((5S,8S,10aR)-8-((3S,4R or 3R,4S)-3-cyano-4-phenylpyrrolidine-1-carbonyl)-3-(2,2-difluoroethyl)-6-oxodecahydropyrrolo[1,2-a][1,5]diazocin-5-yl)carbamoyl)naphthalen-2-yl)difluoromethyl)phosphonic acid]	1 to 10 µM	≤ 0.3 µM
Cc1ccc2onc(C(=O)N3CC[C@H]4CC[C@@H](C(=O)N5C[C@@H](C#N)[C@H](c6ccccc6)C5)N4C(=O)[C@@H](NC(=O)c4ccc5ccc(C(F)(F)P(=O)(O)O)cc5c4)C3)c2c1 (single isomer, unassigned) [Compound 375]	1 to 10 µM	≤ 0.3 µM
CC(=O)N1CC[C@H]2CC[C@@H](C(=O)N(C)c3ccc(C(C)(C)C#N)cc3)N2C(=O)[C@@H](NC(=O)c2cc3cc(C(F)(F)P(=O)(O)O)ccc3s2)C1 [Compound 2, ((2-(((5S,8S,10aR)-3-acetyl-8-((4-(2-cyanopropan-2-yl)phenyl)(methyl)carbamoyl)-6-oxodecahydropyrrolo[1,2-a][1,5]diazocin-5-yl)carbamoyl)benzo[b]thiophen-5-yl)difluoromethyl)phosphonic Acid]	> 10 µM	0.3 to 3 µM
CN(C(=O)[C@@H]1CC[C@@H]2CCN(C(=O)Cc3ccccc3)C[C@H](NC(=O)c3cc4cc(C(F)(F)P(=O)(O)O)ccc4[nH]3)C(=O)N21)c1ccccc1 [Compound 3, (difluoro(2-(((5S,8S,10aR)-8-(methyl(phenyl)carbamoyl)-6-oxo-3-(2-phenylacetyl)decahydropyrrolo[1,2-a][1,5]diazocin-5-yl)carbamoyl)-1H-indol-5-yl)methyl)phosphonic acid]	1 to 10 µM	0.3 to 3 µM
CC(=O)N1CC[C@H]2CC[C@@H](C(=O)N[C@H]3CN(S(C)(=O)=O)C[C@@H]3O)N2C(=O)[C@@H](NC(=O)c2cc3cc(C(F)(F)P(=O)(O)O)ccc3s2)C1 [Compound 6, ((2-(((5S,8S,10aR)-3-acetyl-8-(((3S,4S)-4-hydroxy-1-(methylsulfonyl)pyrrolidin-3-yl)carbamoyl)-6-oxodecahydropyrrolo[1,2-a][1,5]diazocin-5-yl)carbamoyl)benzo[b]thiophen-5-yl)difluoromethyl)phosphonic Acid]	1 to 10 µM	0.3 to 3 µM
CC(=O)N1CC[C@H]2CC[C@@H](C(=O)N3CCC4C3CN4c3ccccc3)N2C(=O)[C@@H](NC(=O)c2cc3cc(C(F)(F)P(=O)(O)O)ccc3s2)C1 (stereo partly drawn) [Compound 11, ((2-(((5S,8S,10aR)-3-acetyl-6-oxo-8-(6-phenyl-2,6-diazabicyclo[3.2.0]heptane-2-carbonyl)decahydropyrrolo[1,2-a][1,5]diazocin-5-yl)carbamoyl)benzo[b]thiophen-5-yl)difluoromethyl)phosphonic acid]	0.1 to 1 µM	0.3 to 3 µM
CC(=O)N1CC[C@H]2CC[C@@H](C(=O)N(C)c3ccccc3)N2C(=O)[C@@H](NC(=O)c2ccc3ccc(C(F)P(=O)(O)O)cc3c2)C1 (stereo partly drawn) [Compound 14, ((7-(((5S,8S,10aR)-3-acetyl-8-(methyl(phenyl)carbamoyl)-6-oxodecahydropyrrolo[1,2-a][1,5]diazocin-5-yl)carbamoyl)naphthalen-2-yl)fluoromethyl)phosphonic acid]	> 10 µM	0.3 to 3 µM
CC(=O)N1CC[C@H]2CC[C@@H](C(=O)N(C)c3ccccc3)N2C(=O)[C@@H](NC(=O)c2ccc3ccc(CP(=O)(O)O)cc3c2)C1 [Compound 15, ((7-(((5S,8S,10aR)-3-acetyl-8-(methyl(phenyl)carbamoyl)-6-oxodecahydropyrrolo[1,2-a][1,5]diazocin-5-yl)carbamoyl)naphthalen-2-yl)methyl)phosphonic acid]	> 10 µM	3 to 30 µM
CC(=O)N1CC[C@H]2CC[C@@H](C(=O)N(C)c3ccccc3)N2C(=O)[C@@H](NC(=O)c2cc3cc(C(C#N)P(=O)(O)O)ccc3s2)C1 (stereo partly drawn) [Compound 16, ((2-(((5S,8S,10aR)-3-acetyl-8-(methyl(phenyl)carbamoyl)-6-oxodecahydropyrrolo[1,2-a][1,5]diazocin-5-yl)carbamoyl)benzo[b]thiophen-5-yl)(cyano)methyl)phosphonic acid]	> 10 µM	> 30 µM
CC(=O)N1CC[C@H]2CC[C@@H](C(=O)Nc3ccc(-c4ccccc4)cc3)N2C(=O)[C@@H](NC(=O)c2cc3cc(C(F)P(=O)(O)O)ccc3s2)C1 (stereo partly drawn) [Compound 17, ((2-(((5S,8S,10aR)-8-([1,1′-biphenyl]-4-ylcarbamoyl)-3-acetyl-6-oxodecahydropyrrolo[1,2-a][1,5]diazocin-5-yl)carbamoyl)benzo[b]thiophen-5-yl)fluoromethyl)phosphonic acid]	1 to 10 µM	0.3 to 3 µM
CC(=O)N1CC[C@H]2CC[C@@H](C(=O)N(C)c3ccccc3)N2C(=O)[C@@H](NC(=O)c2cc3cc(C(C)(F)P(=O)(O)O)ccc3s2)C1 (stereo partly drawn) [Compound 18, (1-(2-(((5S,8S,10aR)-3-acetyl-8-(methyl(phenyl)carbamoyl)-6-oxodecahydropyrrolo[1,2-a][1,5]diazocin-5-yl)carbamoyl)benzo[b]thiophen-5-yl)-1-fluoroethyl)phosphonic acid]	> 10 µM	3 to 30 µM
CC(=O)N1CC[C@H]2CC[C@@H](C(=O)N(C)c3ccccc3)N2C(=O)[C@@H](NC(=O)c2cc3cc(C(CO)P(=O)(O)O)ccc3s2)C1 (stereo partly drawn) [Compound 19, (1-(2-(((5S,8S,10aR)-3-acetyl-8-(methyl(phenyl)carbamoyl)-6-oxodecahydropyrrolo[1,2-a][1,5]diazocin-5-yl)carbamoyl)benzo[b]thiophen-5-yl)-2-hydroxyethyl)phosphonic acid]	> 10 µM	> 30 µM
